biological target: T1, Recombinant human renin (Homo sapiens, UniProt P00797); assay: In vitro enzymatic activity assay of renin inhibitors (fluorescence, QXL520/HiLyteFluo488 peptide substrate); format: biochemical; settings: recombinant human renin 3 nM, 1 μM substrate, pre-incubated 10 minutes at 37° C., incubation one hour, pH 7.4, 5% DMSO; read-out: IC50 of Exemplified Compounds Against Renin
T1 construct: isolate the active form (residues 67-406); made in house; host or cells: FreeStyle 293-F cells, transient expression of pcDNA3.1(+)/hREN
T1 sequence (P00797 67-406): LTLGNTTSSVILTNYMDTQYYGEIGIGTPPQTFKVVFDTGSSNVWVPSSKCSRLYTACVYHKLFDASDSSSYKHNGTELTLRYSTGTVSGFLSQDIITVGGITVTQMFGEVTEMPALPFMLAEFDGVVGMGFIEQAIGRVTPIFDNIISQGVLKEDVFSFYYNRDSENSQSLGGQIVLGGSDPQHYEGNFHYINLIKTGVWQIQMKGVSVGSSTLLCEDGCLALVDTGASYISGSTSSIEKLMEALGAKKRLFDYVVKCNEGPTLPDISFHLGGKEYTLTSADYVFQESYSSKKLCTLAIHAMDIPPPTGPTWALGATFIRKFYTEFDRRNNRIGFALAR

Row | IC50 [nM] | Compound
1 | > 1000 | Cc1ccccc1-n1c(-c2ccccc2)c(C(=O)N2CCNCC2)n(CCCNC(=O)c2ccccc2Cl)c1=O [Example 241, 2-Chloro-N-(3-(2-oxo-4-phenyl-5-(piperazine-1-carbonyl)-3-o-tolyl-2,3-dihydro-1H-imidazol-1-yl)propyl)benzamide]
2 | 500 to 1000 | Cc1ccccc1-n1c(-c2ccccc2)c(C(=O)N2CCNCC2)n(CCNS(=O)(=O)c2ccccc2Cl)c1=O [Example 204, 2-Chloro-N-(2-(2-oxo-4-phenyl-5-(piperazine-1-carbonyl)-3-o-tolyl-2,3-dihydro-1H-imidazol-1-yl)ethyl)benzenesulfonamide]
3 | > 1000 | Cc1ccccc1-n1c(-c2ccccc2)c(C(=O)N2CCNCC2)n(CCNC(=O)OCc2ccccc2)c1=O [Example 251, Benzyl 2-(2-oxo-4-phenyl-5-(piperazine-1-carbonyl)-3-o-tolyl-2,3-dihydro-1H-imidazol-1-yl)ethylcarbamate]
4 | < 100 | Cc1ccccc1-n1c(-c2ccccc2)c(C(=O)N2CCNCC2)n(CCCNS(=O)(=O)c2ccccc2C)c1=O [Example 220, 2-Methyl-N-(3-(2-oxo-4-phenyl-5-(piperazine-1-carbonyl)-3-o-tolyl-2,3-dihydro-1H-imidazol-1-yl)propyl)benzenesulfonamide]
5 | 500 to 1000 | Cc1ccccc1-n1c(-c2ccccc2)c(C(=O)N2CCNCC2)n(CCNC(=O)c2cccc(Cl)c2)c1=O [Example 232, 3-Chloro-N-(2-(2-oxo-4-phenyl-5-(piperazine-1-carbonyl)-3-o-tolyl-2,3-dihydro-1H-imidazol-1-yl)ethyl)benzamide]
6 | 500 to 1000 | Cc1ccccc1-n1c(-c2ccccc2)c(C(=O)N2CCNCC2)n(CCNS(=O)(=O)c2ccccc2C)c1=O [Example 208, 2-Methyl-N-(2-(2-oxo-4-phenyl-5-(piperazine-1-carbonyl)-3-o-tolyl-2,3-dihydro-1H-imidazol-1-yl)ethyl)benzenesulfonamide]
7 | > 1000 | Cc1ccccc1-n1c(-c2ccccc2)c(C(=O)N2CCNCC2)n(CCNC(=O)c2ccccc2F)c1=O [Example 230, 2-Fluoro-N-(2-(2-oxo-4-phenyl-5-(piperazine-1-carbonyl)-3-o-tolyl-2,3-dihydro-1H-imidazol-1-yl)ethyl)benzamide]
8 | 100 to 500 | Cc1ccccc1-n1c(-c2ccccc2)c(C(=O)N2CCNCC2)n(CCNC(=O)Nc2ccccc2)c1=O [Example 211, 1-(2-(2-Oxo-4-phenyl-5-(piperazine-1-carbonyl)-3-o-tolyl-2,3-dihydro-1H-imidazol-1-yl)ethyl)-3-phenylurea]
9 | 500 to 1000 | COc1ccc(S(=O)(=O)NCCCn2c(C(=O)N3CCNCC3)c(-c3ccccc3)n(-c3cccc(N4CCOCC4)c3)c2=O)cc1 [Example 199, 4-Methoxy-N-(3-(3-(3-morpholinophenyl)-2-oxo-4-phenyl-5-(piperazine-1-carbonyl)-2,3-dihydro-1H-imidazol-1-yl)propyl)benzenesulfonamide]

The next lines start with the molecule.

Row | Compound | IC50 [nM]
10 | Cc1ccccc1-n1c(-c2ccccc2)c(C(=O)N2CCNCC2)n(CCNC(=O)c2ccccc2)c1=O [Example 166, N-(2-(2-oxo-4-Phenyl-5-(piperazine-1-carbonyl)-3-o-tolyl-2,3-dihydro-1H-imidazol-1-yl)ethyl)benzamide] | 500 to 1000
11 | O=C(c1c(-c2ccccc2)n(C2CCOCC2)c(=O)n1Cc1ccccc1)N1CCNCC1 [Example 81, 1-Benzyl-4-phenyl-5-(piperazine-1-carbonyl)-3-(tetrahydro-2H-pyran-4-yl)-1H-imidazol-2(3H)-one] | > 1000
12 | O=C(c1[nH]c(=O)n(-c2ccccc2)c1-c1ccccc1)N1CCNC[C@H]1Cc1ccccc1 [Example 109, (R)-4-(2-Benzylpiperazine-1-carbonyl)-1,5-diphenyl-1H-imidazol-2(3H)-one] | < 100
13 | COCCOc1cccc(Cn2c(C(=O)N3CCNCC3)c(-c3ccccc3)n(-c3ccccc3OC)c2=O)c1 [Example 187, 1-(3-(2-Methoxyethoxy)benzyl)-3-(2-methoxyphenyl)-4-phenyl-5-(piperazine-1-carbonyl)-1H-imidazol-2(3H)-one] | > 1000
14 | COc1ccccc1-n1c(-c2ccccc2)c(C(=O)N2CCNCC2)n(CCCNS(=O)(=O)c2ccccc2)c1=O [Example 161, N-(3-(3-(2-Methoxyphenyl)-2-oxo-4-phenyl-5-(piperazine-1-carbonyl)-2,3-dihydro-1H-imidazol-1-yl)propyl)benzenesulfonamide] | 100 to 500
15 | COc1ccccc1-n1c(-c2ccccc2)c(C(=O)N2CCNCC2)n(Cc2ccc(F)c(F)c2)c1=O [Example 148, 1-(3,4-Difluorobenzyl)-3-(2-methoxyphenyl)-4-phenyl-5-(piperazine-1-carbonyl)-1H-imidazol-2(3H)-one] | > 1000
16 | O=C(c1c(-c2ccccc2)n(C2CCCCC2)c(=O)n1CCc1ccccc1)N1CCNCC1 [Example 71, 1-Cyclohexyl-3-phenethyl-5-phenyl-4-(piperazine-1-carbonyl)-1H-imidazol-2(3H)-one] | 100 to 500
17 | O=C(c1c(-c2ccccc2)n(-c2ccccc2)c(=O)n1Cc1ccccc1)N1CCNCC1 [Example 45, 1-Benzyl-3,4-diphenyl-5-(piperazine-1-carbonyl)-1H-imidazol-2(3H)-one] | 100 to 500
18 | O=C(c1c(-c2ccccc2)n(C2CCCCC2)c(=O)n1Cc1cccc(-n2cccc2)c1)N1CCNCC1 [Example 72, 1-(3-(1H-Pyrrol-1-yl)benzyl)-3-cyclohexyl-4-phenyl-5-(piperazine-1-carbonyl)-1H-imidazol-2(3H)-one] | 100 to 500
19 | O=C(c1c(-c2ccccc2)n(C2CCCN(S(=O)(=O)c3ccccn3)C2)c(=O)n1Cc1cccc(Oc2ccccc2)c1)N1CCNCC1 (stereo not shown) [Example 103, 1-(3-Phenoxybenzyl)-4-phenyl-5-(piperazine-1-carbonyl)-3-(1-(pyridin-2-ylsulfonyl)piperidin-3-yl)-1H-imidazol-2(3H)-one] | 100 to 500
20 | O=C(c1c(-c2ccccc2)n(C2CCCCC2)c(=O)n1Cc1cc(-c2cn[nH]c2)nc(-c2cn[nH]c2)c1)N1CCNCC1 [Example 91, 1-Cyclohexyl-3-((2,6-di(1H-pyrazol-4-yl)pyridin-4-yl)methyl)-5-phenyl-4-(piperazine-1-carbonyl)-1H-imidazol-2(3H)-one] | 100 to 500
21 | O=C(c1c(-c2ccccc2)n(-c2ccccc2)c(=O)n1Cc1cccc(F)c1)N1CCNCC1 [Example 51, 1-(3-Fluorobenzyl)-3,4-diphenyl-5-(piperazine-1-carbonyl)-1H-imidazol-2(3H)-one] | 100 to 500
22 | COCCCOc1ccccc1-n1c(-c2ccccc2)c(C(=O)N2CCNCC2)[nH]c1=O [Example 33, 1-(2-(3-Methoxypropoxy)phenyl)-5-phenyl-4-(piperazine-1-carbonyl)-1H-imidazol-2(3H)-one] | > 1000
23 | O=C(c1c(-c2ccccc2)n(-c2cccc(N3CCOCC3)c2)c(=O)n1Cc1ccccc1)N1CCNCC1 [Example 56, 1-Benzyl-3-(3-morpholinophenyl)-4-phenyl-5-(piperazine-1-carbonyl)-1H-imidazol-2(3H)-one] | 100 to 500
24 | CC(=O)Nc1ccccc1-n1c(-c2ccccc2)c(C(=O)N2CCNC[C@H]2Cc2ccccc2)[nH]c1=O [Example 122, (R)—N-(2-(4-(2-Benzylpiperazine-1-carbonyl)-2-oxo-5-phenyl-2,3-dihydro-1H-imidazol-1-yl)phenyl)acetamide] | < 100
25 | Cc1cc(Cn2c(C(=O)N3CCNCC3)c(-c3ccccc3)n(-c3ccccc3)c2=O)no1 [Example 47, 1-((5-Methylisoxazol-3-yl)methyl)-3,4-diphenyl-5-(piperazine-1-carbonyl)-1H-imidazol-2(3H)-one] | > 1000
26 | COC(=O)c1cccc(Cn2c(C(=O)N3CCNCC3)c(-c3ccccc3)n(-c3ccccc3)c2=O)c1 [Example 80, Methyl 3-((2-oxo-3,4-diphenyl-5-(piperazine-1-carbonyl)-2,3-dihydro-1H-imidazol-1-yl)methyl)benzoate] | > 1000
27 | O=C(c1c(-c2ccccc2)n(-c2ccccc2)c(=O)n1Cc1ccc2ccccc2c1)N1CCNCC1 [Example 84, 1-(Naphthalen-2-ylmethyl)-3,4-diphenyl-5-(piperazine-1-carbonyl)-1H-imidazol-2(3H)-one] | 100 to 500
28 | O=C(c1cccc(Cn2c(C(=O)N3CCNCC3)c(-c3ccccc3)n(-c3cccc(N4CCOCC4)c3)c2=O)c1)N1CCCCC1 [Example 58, 1-(3-Morpholinophenyl)-5-phenyl-4-(piperazine-1-carbonyl)-3-(3-(piperidine-1-carbonyl)benzyl)-1H-imidazol-2(3H)-one] | > 1000

Source: patent US8148367B2 (Takeda Pharmaceutical Company Limited, priority 2008, dated 2012)
